System: Acinetobacter baumannii isolates
Test: Antimicrobial susceptibility test, disc diffusion method (CLSI M100-S24)
Type: cell-based
Set-up: key to Inhibition zone: “NZ” indicated that no zone of inhibition was observed
Conditions: for Inhibition zone: disc diffusion
Protocol: A total of 33 non-duplicate, non-consecutive clinical isolates of Multi-Drug Resistant (MDR) Acinetobacter baumannii were collected from burn wards (“AB1-AB33”). Acinetobacter baumannii ATCC BAA 747 and Pseudomonas aeruginosa ATCC 27853 were used as control strains. The isolates were stored at −80° C. in trypticase soy broth containing 20% glycerol.
Antimicrobial susceptibility tests of the collection of isolates were conducted using the disc diffusion method. The experiment was performed according to the recommendations and guidelines of Clinical Laboratory Standard Institutes (CLSI M100-S24; 2014). Clinical and Laboratory Standards Institute (CLSI), “Performance standards for antimicrobial susceptibility testing; twenty-fourth informational supplement,” Document M100-S24, Clinical and Laboratory Standards Institute (CLSI), Wayne, Pa., USA, 2014.
A panel of commercial antibiotic discs (Amoxicillin (AMX), Amoxicillin/clavulanic acid (AMX/CLA), Piperacillin (PIP), Piperacillin/Tazobactam (PIP/TAZ), Ceftazidime (CAZ), Cefotaxime (CTX), Cefepime (FEP), Cefoxitin (FOX), Aztreonam (ATM), Imipenem (IP), Gentamicin (GEN), Amikacin (AK), Neomycin (NEO), Levofloxacin (LEV), Chloramphenicol (CHL), Tetracycline (TET), sulfamethoxazole/trimethoprim (SUL/TRI) was used for susceptibility testing. All commercial antibiotic discs were purchased from BBL (Becton Dickinson, USA).
Forty grams of Mueller-Hinton Agar (MHA) were suspended in 1 Liter distilled water and then boiled to dissolve the powder completely. The medium was sterilized by autoclaving at 121° C. for 15 min. After autoclaving, the medium was cooled to 45° C. and 25 mL of molten agar media was poured into sterile Petri dishes (90 mm diameter) to give a depth of about 4 mm. The surface of the agar was dried to remove excess moisture before use. The plates were stored at 4-8° C. in sealed plastic bags if not used immediately.
The inoculum suspension was prepared by selecting three to five morphologically similar colonies from overnight growth (16-24 h of incubation) on blood agar medium. […] The suspension density was measured using a UV spectrophotometer calibrated with a 0.5 McFarland standard. The density of the suspension was adjusted to McFarland 0.5 by addition of saline or more microorganisms. The adjusted inoculum suspension was used within 60 min of preparation.
A sterile cotton swab was dipped into the bacterial suspension and the excess fluid was removed by turning the swab against the inside wall of the tube to avoid over-inoculation of plates. The inoculum was spread evenly over the entire surface of the agar plate by swabbing in three directions.
The predetermined panel of antimicrobial disks was applied firmly on the inoculated Mueller-Hinton agar surface within 15 min of inoculation of the plates by a disc dispenser device. A maximum of six disks were accommodated on a 90-mm circular plate.
Within 15 min of application of antimicrobial disks, the plates were inverted and incubated aerobically at 35-37° C. for 18-20 h.
After incubation, inhibition zones were measured at the point where no obvious growth is detected by the unaided eye when the plate is held about 30 cm from the eye. Inhibition zone diameters were measured to the nearest millimeter with a ruler. The plates were read from the back of the plate with reflected light against a dark background. Zone diameters were interpreted and categorized as susceptible “S”, intermediate “I”, or resistant “R” according to the CLSI clinical breakpoint tables (see Table 1 and Table 2).

In the case of `C[C@H]1[C@H](NC(=O)/C(=N\OC(C)(C)C(=O)O)c2csc(N)n2)C(=O)N1S(=O)(=O)O` [ATM, Aztreonam], the susceptibility category (isolate AB1, ATM disc) was “R (Resistant ≤15)”, the Inhibition zone (isolate AB1) was “NZ” and the susceptibility category (isolate AB2, ATM disc) was “R (Resistant ≤15)”. For the same compound, the Inhibition zone (isolate AB2) was “NZ”, the susceptibility category (isolate AB3, ATM disc) was “R (Resistant ≤15)” and the Inhibition zone (isolate AB3) was “NZ”. The susceptibility category (isolate AB4, ATM disc) was “R (Resistant ≤15)”, the Inhibition zone (isolate AB4) was “NZ” and the susceptibility category (isolate AB5, ATM disc) was “R (Resistant ≤15)”. For the same compound, the Inhibition zone (isolate AB5) was “NZ”, the susceptibility category (isolate AB6, ATM disc) was “S (Sensitive ≥22)” and the Inhibition zone (isolate AB6) was 20 mm. For the same compound, the susceptibility category (isolate AB7, ATM disc) was “R (Resistant ≤15)”, the Inhibition zone (isolate AB7) was “NZ” and the susceptibility category (isolate AB8, ATM disc) was “R (Resistant ≤15)”. For the same compound, the Inhibition zone (isolate AB8) was “NZ”, the susceptibility category (isolate AB9, ATM disc) was “R (Resistant ≤15)” and the Inhibition zone (isolate AB9) was “NZ”. For the same compound, the susceptibility category (isolate AB10, ATM disc) was “R (Resistant ≤15)”, the Inhibition zone (isolate AB10) was 13 mm and the susceptibility category (isolate AB11, ATM disc) was “R (Resistant ≤15)”. For the same compound, the Inhibition zone (isolate AB11) was “NZ”, the susceptibility category (isolate AB12, ATM disc) was “R (Resistant ≤15)” and the Inhibition zone (isolate AB12) was “NZ”. For the same compound, the susceptibility category (isolate AB13, ATM disc) was “R (Resistant ≤15)”, the Inhibition zone (isolate AB13) was “NZ” and the susceptibility category (isolate AB14, ATM disc) was “R (Resistant ≤15)”. For the same compound, the Inhibition zone (isolate AB14) was “NZ”, the susceptibility category (isolate AB15, ATM disc) was “R (Resistant ≤15)” and the Inhibition zone (isolate AB15) was 11 mm. For the same compound, the susceptibility category (isolate AB16, ATM disc) was “S (Sensitive ≥22)”, the Inhibition zone (isolate AB16) was 33 mm and the susceptibility category (isolate AB17, ATM disc) was “R (Resistant ≤15)”. The Inhibition zone (isolate AB17) was 15 mm, the susceptibility category (isolate AB18, ATM disc) was “R (Resistant ≤15)” and the Inhibition zone (isolate AB18) was 10 mm. For the same compound, the susceptibility category (isolate AB19, ATM disc) was “R (Resistant ≤15)”, the Inhibition zone (isolate AB19) was 8 mm and the susceptibility category (isolate AB20, ATM disc) was “R (Resistant ≤15)”. For the same compound, the Inhibition zone (isolate AB20) was “NZ”, the susceptibility category (isolate AB21, ATM disc) was “R (Resistant ≤15)” and the Inhibition zone (isolate AB21) was 7 mm. For the same compound, the susceptibility category (isolate AB22, ATM disc) was “R (Resistant ≤15)”, the Inhibition zone (isolate AB22) was “NZ” and the susceptibility category (isolate AB23, ATM disc) was “R (Resistant ≤15)”. For the same compound, the Inhibition zone (isolate AB23) was “NZ”, the susceptibility category (isolate AB24, ATM disc) was “R (Resistant ≤15)” and the Inhibition zone (isolate AB24) was “NZ”. The susceptibility category (isolate AB25, ATM disc) was “R (Resistant ≤15)”, the Inhibition zone (isolate AB25) was 13 mm and the susceptibility category (isolate AB26, ATM disc) was “R (Resistant ≤15)”. For the same compound, the Inhibition zone (isolate AB26) was 12 mm, the susceptibility category (isolate AB27, ATM disc) was “R (Resistant ≤15)” and the Inhibition zone (isolate AB27) was “NZ”. The susceptibility category (isolate AB28, ATM disc) was “R (Resistant ≤15)”, the Inhibition zone (isolate AB28) was “NZ” and the susceptibility category (isolate AB29, ATM disc) was “R (Resistant ≤15)”. For the same compound, the Inhibition zone (isolate AB29) was “NZ”, the susceptibility category (isolate AB30, ATM disc) was “R (Resistant ≤15)” and the Inhibition zone (isolate AB30) was 9 mm. The susceptibility category (isolate AB31, ATM disc) was “R (Resistant ≤15)”, the Inhibition zone (isolate AB31) was “NZ” and the susceptibility category (isolate AB32, ATM disc) was “R (Resistant ≤15)”. The Inhibition zone (isolate AB32) was 8 mm, the susceptibility category (isolate AB33, ATM disc) was “R (Resistant ≤15)” and the Inhibition zone (isolate AB33) was 9 mm.

With `C[C@H]1COc2c(N3CCN(C)CC3)c(F)cc3c(=O)c(C(=O)O)cn1c23` [LEV, Levofloxacin] the susceptibility category (isolate AB1, LEV disc) was “S (Sensitive ≥17)”, the Inhibition zone (isolate AB1) was 30 mm and the susceptibility category (isolate AB2, LEV disc) was “S (Sensitive ≥17)”. For the same compound, the Inhibition zone (isolate AB2) was 30 mm, the susceptibility category (isolate AB3, LEV disc) was “S (Sensitive ≥17)” and the Inhibition zone (isolate AB3) was 29 mm. For the same compound, the susceptibility category (isolate AB4, LEV disc) was “S (Sensitive ≥17)”, the Inhibition zone (isolate AB4) was 30 mm and the susceptibility category (isolate AB5, LEV disc) was “S (Sensitive ≥17)”. The Inhibition zone (isolate AB5) was 19 mm, the susceptibility category (isolate AB6, LEV disc) was “S (Sensitive ≥17)” and the Inhibition zone (isolate AB6) was 21 mm. For the same compound, the susceptibility category (isolate AB7, LEV disc) was “I (Intermediate 14-16)”, the Inhibition zone (isolate AB7) was 14 mm and the susceptibility category (isolate AB8, LEV disc) was “I (Intermediate 14-16)”. The Inhibition zone (isolate AB8) was 15 mm, the susceptibility category (isolate AB9, LEV disc) was “S (Sensitive ≥17)” and the Inhibition zone (isolate AB9) was 28 mm. The susceptibility category (isolate AB10, LEV disc) was “I (Intermediate 14-16)”, the Inhibition zone (isolate AB10) was 14 mm and the susceptibility category (isolate AB11, LEV disc) was “R (Resistant ≤13)”. For the same compound, the Inhibition zone (isolate AB11) was 11 mm, the susceptibility category (isolate AB12, LEV disc) was “R (Resistant ≤13)” and the Inhibition zone (isolate AB12) was 10 mm. For the same compound, the susceptibility category (isolate AB13, LEV disc) was “R (Resistant ≤13)”, the Inhibition zone (isolate AB13) was 8 mm and the susceptibility category (isolate AB14, LEV disc) was “R (Resistant ≤13)”. The Inhibition zone (isolate AB14) was 11 mm, the susceptibility category (isolate AB15, LEV disc) was “I (Intermediate 14-16)” and the Inhibition zone (isolate AB15) was 15 mm. For the same compound, the susceptibility category (isolate AB16, LEV disc) was “R (Resistant ≤13)”, the Inhibition zone (isolate AB16) was “NZ” and the susceptibility category (isolate AB17, LEV disc) was “R (Resistant ≤13)”. The Inhibition zone (isolate AB17) was 11 mm, the susceptibility category (isolate AB18, LEV disc) was “R (Resistant ≤13)” and the Inhibition zone (isolate AB18) was 13 mm. The susceptibility category (isolate AB19, LEV disc) was “R (Resistant ≤13)”, the Inhibition zone (isolate AB19) was 11 mm and the susceptibility category (isolate AB20, LEV disc) was “R (Resistant ≤13)”. For the same compound, the Inhibition zone (isolate AB20) was 13 mm, the susceptibility category (isolate AB21, LEV disc) was “I (Intermediate 14-16)” and the Inhibition zone (isolate AB21) was 14 mm. The susceptibility category (isolate AB22, LEV disc) was “I (Intermediate 14-16)”, the Inhibition zone (isolate AB22) was 14 mm and the susceptibility category (isolate AB23, LEV disc) was “R (Resistant ≤13)”. The Inhibition zone (isolate AB23) was 11 mm, the susceptibility category (isolate AB24, LEV disc) was “R (Resistant ≤13)” and the Inhibition zone (isolate AB24) was 12 mm. For the same compound, the susceptibility category (isolate AB25, LEV disc) was “I (Intermediate 14-16)”, the Inhibition zone (isolate AB25) was 14 mm and the susceptibility category (isolate AB26, LEV disc) was “R (Resistant ≤13)”. The Inhibition zone (isolate AB26) was “NZ”, the susceptibility category (isolate AB27, LEV disc) was “R (Resistant ≤13)” and the Inhibition zone (isolate AB27) was 8 mm. For the same compound, the susceptibility category (isolate AB28, LEV disc) was “I (Intermediate 14-16)”, the Inhibition zone (isolate AB28) was 15 mm and the susceptibility category (isolate AB29, LEV disc) was “I (Intermediate 14-16)”. For the same compound, the Inhibition zone (isolate AB29) was 15 mm, the susceptibility category (isolate AB30, LEV disc) was “I (Intermediate 14-16)” and the Inhibition zone (isolate AB30) was 15 mm. For the same compound, the susceptibility category (isolate AB31, LEV disc) was “R (Resistant ≤13)”, the Inhibition zone (isolate AB31) was 10 mm and the susceptibility category (isolate AB32, LEV disc) was “S (Sensitive ≥17)”. For the same compound, the Inhibition zone (isolate AB32) was 18 mm, the susceptibility category (isolate AB33, LEV disc) was “S (Sensitive ≥17)” and the Inhibition zone (isolate AB33) was 30 mm.

Source: US11617726B2, “Method for preventing, treating, or ameliorating a microbial infection” (priority 2018, dated 2023)
